These results are taken from patent US10766864B2, “Morphinan derivatives for the treatment of neuropathic pain” (Nektar Therapeutics, priority 2015, dated 2020).

One test concerns the target NMDA receptor. Description: Competitive radioligand binding at NMDA receptor ([3H] MK801), rat forebrain membranes. The settings on record: 0.2 nM [3H] MK801, reflects free base activity. The method, then:
(§1) Receptor Binding at MOR and NMDA.
(§2) Affinities of various compounds were measured in vitro using competitive radioligand binding assays. Serial dilutions of test compounds were incubated with membranes prepared from CHO-K1 cells expressing the mu opioid receptor (MOR; for opioid receptor binding) or rat forebrain membranes (for NMDA receptor binding). 2 nM [^3H] Naloxone (MOR) or 0.2 nM [^3H] MK801 (NMDA) were used as the specific, competitive radioligands. 10 uM Naloxone (MOR), or 10 uM MK801 (NMDA) was used to determine non-specific binding. Bound radioactivity was measured using a scintillation counter & IC50 values for test compounds were determined by non-linear regression analysis using a one-site competition model (Graph Pad Prizm). Due to each test compound being solubilized in a buffered system for the assay, the results presented herein reflect the free base activity.

For the next test, the target named is mu opioid receptor (MOR) (Homo sapiens (Human), UniProt P35372). Description: Competitive radioligand binding at MOR ([3H] Naloxone). How it is done:
as §1, §2

Setting [1] is: membranes from CHO-K1 cells expressing MOR, 2 nM [3H] Naloxone, reflects free base activity, read-out: MOR IC50.

Like-named read-outs stand apart in the source and are kept apart here.

What is called IC50 is the concentration at which inhibition is half-maximal. Regarding `COCCOCCn1cc(-c2ccc3c(c2)C24CCCCC2C(C3)N(C)CC4)cn1` (centres unmarked) [Compound 65, 3-{1-[2-(2-methoxyethoxy)ethyl]-1H-pyrazol-4-yl}-17-methylmorphinan], the IC50 on NMDA receptor is more than 10 µM; on mu opioid receptor (MOR) (setting [1]), more than 1 µM.

Regarding `COCCOCCOc1cnccc1Nc1ccc2c(c1)[C@@]13CCCC[C@H]1[C@@H](C2)N(C)CC3` [Compound 66, (4bR,8aR,9R)—N-(3-(2-(2-methoxyethoxy)ethoxy)pyridin-4-yl)-11-methyl-6,7,8,8a,9,10-hexahydro-5H-9,4b-(epiminoethano)phenanthren-3-amine], the IC50 at NMDA receptor lay in the range of 1 to 10 µM; on mu opioid receptor (MOR) (setting [1]), 0.1 to 1 µM.

Turning to `COCCOCCOc1cc(Nc2ccc3c(c2)[C@@]24CCCC[C@H]2[C@@H](C3)N(C)CC4)ccn1` [Compound 67, N-{2-[2-(2-methoxyethoxy)ethoxy]pyridin-4-yl}-17-methylmorphinan-3-amine], the IC50 at NMDA receptor is more than 10 µM; at mu opioid receptor (MOR) (setting [1]), 0.1 to 1 µM.

Regarding `COCCOCCOCC(=O)Nc1nc2cc3c(cc2s1)C[C@@H]1[C@@H]2CCCC[C@]32CCN1C` [Compound 68, 2-[2-(2-methoxyethoxy)ethoxy]-N— [(4aR,5R,11bR)-14-methyl-2,3,4,4a,5,6-hexahydro-1H-5,11b-(epiminoethano)phenanthro[3,2-d][1,3]thiazol-9-yl]acetamide], the IC50 on NMDA receptor is 1 to 10 µM; at mu opioid receptor (MOR) (setting [1]), more than 1 µM.

On to `COCCOCCOCCNc1nc2cc3c(cc2s1)C[C@@H]1[C@@H]2CCCC[C@]32CCN1C` [Compound 71, (4aR,5R,11bR)—N-(2-(2-(2-methoxyethoxy)ethoxy)ethyl)-14-methyl-2,3,4,4a,5,6-hexahydro-1H-5,11b-(epiminoethano)phenanthro[3,2-d]thiazol-9-amine], for which the IC50 on NMDA receptor was in the range of 1 to 10 µM; on mu opioid receptor (MOR) (setting [1]) it was 0.1 to 1 µM.

For the compound `COCCNC(=O)Nc1nc2cc3c(cc2s1)C[C@@H]1[C@@H]2CCCC[C@]32CCN1C` [Compound 72, 1-(2-methoxyethyl)-3-((4aR,5R,11bR)-14-methyl-2,3,4,4a,5,6-hexahydro-1H-5,11b-(epiminoethano)phenanthro[3,2-d]thiazol-9-yl)urea], the IC50 is more than 10 µM on NMDA receptor and more than 1 µM at mu opioid receptor (MOR) (setting [1]).

For the compound `COCCOc1cc2c(cc1O)[C@@]13CCCCC1[C@@H](C2)N(C)CC3` (some centres unmarked) [Compound 73, 2-(2-methoxyethoxy)-17-methylmorphinan-3-ol], the IC50 on NMDA receptor was in the range of 1 to 10 µM; on mu opioid receptor (MOR), 0.1 to 1 µM.

In the case of `COCCOc1cc(O)cc2c1C[C@@H]1[C@@H]3CCCC[C@]23CCN1C` [Compound 74, 1-(2-methoxyethoxy)-17-methylmorphinan-3-ol], the IC50 was more than 10 µM at NMDA receptor and more than 1 µM at mu opioid receptor (MOR) (setting [1]).

For `COCCOCCOCCO[C@H]1CCC[C@H]2[C@H]3Cc4ccc(O)cc4[C@@]12CCN3C` [Compound 75, (5α)-5-{2-[2-(2-methoxyethoxy)ethoxy]ethoxy}-17-methylmorphinan-3-ol], the values for the IC50 at NMDA receptor and on mu opioid receptor (MOR) (setting [1]) were more than 10 µM and 0.01 to 0.1 µM, respectively.

On to `COCCNc1cc2c(cc1[N+](=O)[O-])C[C@@H]1[C@@H]3CCCC[C@]23CCN1C` [Compound 76, N-(2-methoxyethyl)-17-methyl-2-nitromorphinan-3-amine], for which the IC50 was more than 10 µM on NMDA receptor and more than 1 µM at mu opioid receptor (MOR) (setting [1]).

With `COCCOCCOCCOCCOCCNc1nc2ccc3c(c2s1)[C@@]12CCCC[C@H]1[C@@H](C3)N(C)CC2` [Compound 77, (7R,7aR,11aR)—N-(2,5,8,11,14-pentaoxahexadecan-16-yl)-14-methyl-7,7a,8,9,10,11-hexahydro-6H-7,11a-(epiminoethano)phenanthro[3,4-d]thiazol-2-amine], the IC50 was more than 10 µM on NMDA receptor and more than 1 µM at mu opioid receptor (MOR) (setting [1]).

Turning to `COCCOCCOCCNc1nc2ccc3c(c2s1)[C@@]12CCCC[C@H]1[C@@H](C3)N(C)CC2` [Compound 78, (7R,7aR,11aR)—N-(2-(2-(2-methoxyethoxy)ethoxy)ethyl)-14-methyl-7,7a,8,9,10,11-hexahydro-6H-7,11a-(epiminoethano)phenanthro[3,4-d]thiazol-2-amine], the values for the IC50 at NMDA receptor and at mu opioid receptor (MOR) (setting [1]) were more than 10 µM and more than 1 µM, respectively.

With `COCCOCCC(=O)Nc1ccc2c(c1)[C@@]13CCCC[C@H]1[C@@H](C2)N(C)CC3` [Compound 79, 3-(2-methoxyethoxy)-N-((4bR,8aR,9R)-11-methyl-6,7,8,8a,9,10-hexahydro-5H-9,4b-(epiminoethano)phenanthren-3-yl)propanamide], the IC50 is more than 10 µM at NMDA receptor and more than 1 µM on mu opioid receptor (MOR) (setting [1]).

Consider `COCCOCCOCCOCCOCCCC(=O)Nc1nc2cc3c(cc2s1)C[C@@H]1[C@@H]2CCCC[C@]32CCN1C` [Compound 80, N-[(4aR,5R,11bR)-14-methyl-2,3,4,4a,5,6-hexahydro-1H-5,11b-(epiminoethano)phenanthro[3,2-d][1,3]thiazol-9-yl]-2,5,8,11,14-pentaoxaoctadecan-18-amide], for which the IC50 at NMDA receptor was 1 to 10 µM; on mu opioid receptor (MOR) (setting [1]) it was more than 1 µM.

Consider `CN1CC[C@]23CCCC[C@H]2[C@H]1Cc1cc2nc[nH]c2cc13` [Compound 81, (4aR,5R,11bR)-14-methyl-1,2,3,4,4a,5,6,10-octahydro-5,11b-(epiminoethano)phenanthro[2,3-d]imidazole], for which the IC50 at NMDA receptor is more than 10 µM; on mu opioid receptor (MOR), 0.01 to 0.1 µM.

For the compound `CN1CC[C@]23CCCC[C@H]2[C@H]1Cc1cc2nc(N)[nH]c2cc13` [Compound 82, (4aR,5R,11bR)-14-methyl-1,2,3,4,4a,5,6,10-octahydro-5,11b-(epiminoethano)phenanthro[2,3-d]imidazol-9-amine], the half-maximal inhibitory concentration (IC50) at NMDA receptor was more than 10 µM; at mu opioid receptor (MOR) (setting [1]) it was 0.1 to 1 µM.

Take `CN1CC[C@]23CCCC[C@H]2[C@H]1Cc1cc2sc(NC(=N)N)nc2cc13` [Compound 84, 1-((4aR,5R,11bR)-14-methyl-2,3,4,4a,5,6-hexahydro-1H-5,11b-(epiminoethano)phenanthro[3,2-d]thiazol-9-yl)guanidine]: the values for the IC50 at NMDA receptor and at mu opioid receptor (MOR) (setting [1]) were 1 to 10 µM and 0.1 to 1 µM, respectively.

For `CN1CC[C@]23CCCC[C@H]2[C@H]1Cc1cc2sc(NC(=O)C4CCN(C(=O)OC(C)(C)C)CC4)nc2cc13` [Compound 85, tert-butyl 4-{[(4aR,5R,11bR)-14-methyl-2,3,4,4a,5,6-hexahydro-1H-5,11b-(epiminoethano)phenanthro[3,2-d][1,3]thiazol-9-yl]carbamoyl}piperidine-1-carboxylate], the values for the IC50 on NMDA receptor and at mu opioid receptor (MOR) (setting [1]) were more than 10 µM and more than 1 µM, respectively.

Consider `COCCN1CC[C@]23CCCC[C@H]2[C@H]1Cc1ccc(Nc2cccnc2)cc13` [Compound 86, 17-(2-methoxyethyl)-N-(pyridin-3-yl)morphinan-3-amine], for which the IC50 at NMDA receptor was in the range of 1 to 10 µM; at mu opioid receptor (MOR) it was 0.0001 to 0.01 µM.

With `Oc1ccc2c(c1)[C@@]13CCCC[C@H]1[C@@H](C2)N(C1COC1)CC3` [Compound 87, 17-(oxetan-3-yl)morphinan-3-ol], the IC50 at NMDA receptor was more than 10 µM; at mu opioid receptor (MOR) (setting [1]), more than 1 µM.

For the compound `Oc1ccc2c(c1)[C@@]13CCCC[C@H]1[C@@H](C2)N(CC1COC1)CC3` [Compound 88, 17-(oxetan-3-ylmethyl)morphinan-3-ol], the IC50 at NMDA receptor was 1 to 10 µM; at mu opioid receptor (MOR) it was 0.01 to 0.1 µM.

Take `CN1CC[C@]23CCCC[C@H]2[C@H]1Cc1cc2cccnc2cc13` [Compound 89, (4aR,5R,12bR)-15-methyl-2,3,4,4a,5,6-hexahydro-1H-5,12b-(epiminoethano)naphtho[2,1-g]quinoline]: the IC50 lay within 1 to 10 µM at NMDA receptor and 0.1 to 1 µM on mu opioid receptor (MOR) (setting [1]).

As for `CN1CC[C@]23Cc4nc(N)sc4C[C@H]2[C@H]1Cc1ccc(O)cc13` [Compound 90, (6R,6aR,11aS)-9-amino-14-methyl-6,6a,7,11-tetrahydro-5H-6,11a-(epiminoethano)phenanthro[3,2-d]thiazol-2-ol], the IC50 on NMDA receptor was more than 10 µM; on mu opioid receptor (MOR), 0.01 to 0.1 µM.

As for `Oc1ccc2c(c1)[C@@]13CCCC[C@H]1[C@@H](C2)N(CC1CCO1)CC3` (some centres unmarked) [Compound 91, 17-(oxetan-2-ylmethyl)morphinan-3-ol], the IC50 on NMDA receptor fell in the range of 1 to 10 µM; on mu opioid receptor (MOR) it was 0.0001 to 0.01 µM.

Take `COCCNC(=N)Nc1nc2cc3c(cc2s1)C[C@@H]1[C@@H]2CCCC[C@]32CCN1C` [Compound 92, 1-(2-methoxyethyl)-3-((4aR,5R,11bR)-14-methyl-2,3,4,4a,5,6-hexahydro-1H-5,11b-(epiminoethano)phenanthro[3,2-d]thiazol-9-yl)guanidine]: the figures for the IC50 at NMDA receptor and at mu opioid receptor (MOR) (setting [1]) were more than 10 µM and 0.1 to 1 µM, respectively.

For `COCCN1CC[C@]23CCCC[C@H]2[C@H]1Cc1ccc(Nc2ccncc2)cc13` [Compound 93, 17-(2-methoxyethyl)-N-(pyridin-4-yl)morphinan-3-amine], the IC50 at NMDA receptor is 0.0001 to 0.1 µM; at mu opioid receptor (MOR), 0.01 to 0.1 µM.

For the compound `CN1CC[C@]23CCCC[C@H]2[C@H]1Cc1cc2ncc(N)nc2cc13` [Compound 94, (4aR,5R,12bR)-15-methyl-2,3,4,4a,5,6-hexahydro-1H-5,12b-(epiminoethano)naphtho[1,2-g]quinoxalin-10-amine], the IC50 is 0.1 to 1 µM at NMDA receptor and more than 1 µM on mu opioid receptor (MOR) (setting [1]).

With `CN1CC[C@]23CCCC[C@H]2[C@H]1Cc1cc2nnc(N)nc2cc13` [Compound 95, (4aR,5R,12bR)-15-methyl-2,3,4,4a,5,6-hexahydro-1H-5,12b-(epiminoethano)phenanthro[3,2-e][1,2,4]triazin-10-amine], the IC50 on NMDA receptor is 1 to 10 µM; at mu opioid receptor (MOR) (setting [1]), more than 1 µM.
